In publication PMC6096457, “Modified translationally controlled tumor protein-derived protein transduction domain enhances nasal delivery of exendin-4 as shown with insulin” (Drug Delivery, 2018):

Assay: Visual inspection for cloudiness (turbidity) and precipitation
Type: physicochemical
Details: mixtures in 10 mM phosphate buffer pH 6.4
Description: All exendin-4/PTD mixtures were clear.

For “MIIFRLLAYHKK [TCTP-PTD 13M3, substitution S9Y of TCTP-PTD 13M2]”, the “cloudiness (turbidity) and precipitation” value was “did not form any precipitations”.
